BindingDB's records for doi:10.1016/j.ejmech.2014.06.070 (The University of Newcastle, 2014)

Assay: Inhibition of Dynamin 1 in serum-starved human U2OS cells assessed as inhibition of clathrin-mediated […]-cojugated transferrin uptake pretreated for 30 mins by high-content imaging method

SMILES	IC50 [µM]
O=C1C=C(Nc2cccc(C(=O)O)c2)C(=O)C=C1Nc1cccc(C(=O)O)c1	> 300
O=C1C=C(Nc2ccc(C(=O)O)cc2)C(=O)C=C1Nc1ccc(C(=O)O)cc1	200
O=C1C=C(Nc2ccccc2C(=O)O)C(=O)C=C1Nc1ccccc1C(=O)O [2,2'-(3,6-dioxocyclohexa-1,4-diene-1,4-diyl)bis(azanediyl)dibenzoic acid]	162

Further lines, results first:

IC50 [µM]	SMILES
36	O=C1C=C(Nc2ccc(O)cc2)C(=O)C=C1Nc1ccc(O)cc1
120	O=C1C=C(NCc2ccccc2)C(=O)C=C1NCc1ccccc1
